In patent US20110250136A1, “FLUORINATED BENZOTHIAZOLE DERIVATIVES, PREPARATION METHOD THEREOF AND IMAGING AGENT FOR DIAGNOSING ALTZHEIMER'S DISEASE USING THE SAME” (SNU R&DB FOUNDATION, priority 2008, published 2011):
Where “and” joins values, the source holds several entries; their conditions need not be identical. Identical values can stand only once.

Experiments:
[1] = molecular target: T1, Aβ1-40 fibrils (Homo sapiens, UniProt P05067); conditions: radioactive ligand, known value, first Aβ1-40; cited from earlier work
T1 construct: beta-amyloid plaque peptides (Aβ1-40 and Aβ1-42)
T1 sequence (P05067 672-711 limits assumed): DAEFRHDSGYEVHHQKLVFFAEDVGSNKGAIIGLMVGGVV

[2] = molecular target: T2, Aβ1-42 fibrils (Homo sapiens, UniProt P05067); conditions: radioactive ligand, known value, printed as second Aβ1-40; read-out: Kd for Aβ1-40 (second named); cited from earlier work
T2 construct: beta-amyloid plaque peptides (Aβ1-40 and Aβ1-42)
T2 sequence (P05067 672-713 limits assumed): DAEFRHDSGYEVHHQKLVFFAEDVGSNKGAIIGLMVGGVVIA

[3] = In vivo cerebral uptake and release degree in a normal mouse; design: species or system ICR mice; conditions: for % ID-kg/g: corrected for body weight; for % ID/g: tail vein injection, normal mouse; for release from normal mouse brain (in words): up to 60 min
Description: 6 week-old ICR mice were used for experiments on cerebral uptake and release degree of three 6-[18F]fluorine-2-allylbenzothiazole derivatives (compounds in Examples 1 to 3) in a mouse over time. Each of the compounds in Examples 1 to 3 was dissolved in physiological saline solution containing 5% ethanol, and each of 200 μl (100 μCi) of the solutions was injected through the tail vein of the mouse. 2, 30, and 60 minutes were selected as in-vivo retention time periods, and 4 to 7 mice were used in each time period. After the mice were sacrificed by cervical dislocation in each time period, the brains were quickly removed, they were separated into three parts of cortex, cerebellum, and remnant on filter paper kept on ice, respectively, and blood was collected. The specimen thus-obtained was introduced into a glass tube, the weight was determined, and the radioactivity were measured using a gamma counter. Using the data obtained, the percent injected dose per gram of tissue (% ID/g) in each sample compared to radioactivity actually injected, and the value (% ID-kg/g) corrected for individual body weights of the mice used were calculated.

[4] = Measurement of partition coefficient (1-octanol / PBS buffer, gamma counter); assay type: physicochemical; conditions: 1-octanol / 1 M PBS buffer, room temperature; read-out: Log P value
Description: For this purpose, the distribution ratio of octanol to water buffer of the compound to be measured may be measured to determine the relative lipophilicity of each compound. […] The mixture was vortexed at room temperature for 5 minutes and then was centrifuged at 1000 rpm for 5 minutes. 4 ml was withdrawn from the octanol layer of the solution, introduced into a new tube, and another 4 ml of 1 M PBS buffer was introduced into the tube. The mixture was vortexed at room temperature for 5 minutes and then centrifuged at 1000 rpm for 5 minutes. 50 μl was withdrawn from the octanol layer and introduced into a test tube, and 500 μl was withdrawn from the 1 M PBS buffer and introduced into the test tube. 3 ml was withdrawn from the octanol layer and introduced into another test tube, and another 3 ml of 1 M PBS buffer was added into the test tube. The mixture was vortexed at room temperature for 5 minutes and then centrifuged at 1000 rpm for 5 minutes. 50 μl was withdrawn from the octanol layer and introduced into a test tube, and 500 μl was withdrawn from the 1 M PBS buffer and introduced into the test tube. 2 ml was withdrawn from the octanol layer and introduced into another test tube, and another 2 ml of the PBS buffer. The mixture was vortexed at room temperature for 5 minutes and then centrifuged at 1000 rpm for 5 minutes. […]

[5] = Brain imaging (PET) of normal volunteer, brain region to cerebellar ratio; assay type: in vivo, human; conditions: 196 MBq i.v.; for brain region to cerebellar ratio, Cinerea / brain region to cerebellar ratio, Frontal cortex / brain region to cerebellar ratio, Occipital cortex / brain region to cerebellar ratio, posterior cingulate cortex: PET; for brain region to cerebellar ratio, Cerebell: PET (reference region)
Description: Each of the compounds (196 MBq) in Examples 2 and 3 of the present invention was dissolved in 6 ml of physiological saline solution including 5% ethanol, the resulting solution was intravenously injected into a normal volunteer (78 kg), and Static Images of the brain from the injection to 2 hours were obtained through a Phillips Allegro PET scanner. The protocol of the brain imaging repeated emission and transmission as follows.
[2 minute emission+transmission]×four times
[5 minute emission+transmission]×four times
[10 minute emission+transmission]×three times
For attenuation correction, a Cs-137 radiation source prior to the administration was used to obtain a one-and-a half minute transmission scan per bed (18 cm). The transmission image and a 3D Row-Action Maximum-Likelihood (RAMLA) algorithm were used to reconstruct an attenuation corrected image. The 3D voxel size was 2.0×2.0×2.0 mm and the matrix size was 128×128×90 (FIGS. 2 and 3).

[6] = molecular target: T2, Aβ1-42 fibrils; test: Binding affinity to beta-amyloid fibrils, competition with [125I]TZDM; conditions: [125I]TZDM radioligand
Description: (§1) A fibril solution, in which 1 mg of each of beta-amyloid plaque peptides (Aβ1-40 and Aβ1-42) to be used for analysis was dissolved in 1.155 ml of ethylenediaminetetraacetic acid disodium salt (Na2EDTA) solution, was introduced into 20 mM PBS buffer (pH 7.4), a sonication was performed for 30 minutes, and then the mixture was incubated with stirring for 3 days at 30° C. The thus-obtained solution was high speed centrifuged (28,000 g for 15 minutes) at 4° C., and the supernatant was collected. The precipitate was washed twice with 100 μl of a mixture solution of 1 mM ethylenediaminetetraacetic acid disodium salt and 10 mM PBS buffer. The precipitate was resuspended in 2.310 ml of 1 mM ethylenediaminetetraacetic acid disodium salt and 10 mM PBS buffer, and the suspended sold produced was divided into equal aliquots of 30 μl and kept at −80° C. […] A mixed solution with a total volume of 1000 μl was incubated at room temperature for 3 hours, and then a Whatman GF/B filter was used to separate the solution into unbound radioactive materials and bound radioactive materials. Then, each tube was washed three times with 3 μl of 10% ethanol. The radioactivity was measured using an automatic gamma counter.

[7] = molecular target: T1, Aβ1-40 fibrils; test: as above; conditions: [125I]TZDM radioligand
Description: as §1

In the case of `CNc1ccc(-c2nc3ccccc3s2)cc1I` [2-(3-[125I]iodo-4′-N-methylaminophenyl)benzothiazole], the Kd [1] is given as 2.3 ± 0.33 nM and the Kd [2] is given as 0.44 ± 0.25 nM.
For `CNc1ccc(-c2nc3ccc([18F])cc3s2)cc1` [Example 2, 2-(4′-N-Methylaminophenyl)-6-[^18F]fluorobenzothiazole], the “% ID-kg/g” value ([3]; Blood, 2 min) was 0.070 ± 0.007 % ID-kg/g, the “% ID/g” value ([3]; Blood, 2 min) was 2.08 ± 0.19 % ID/g and the “% ID-kg/g” value ([3]; Blood, 30 min) was 0.032 ± 0.007 % ID-kg/g. The “% ID/g” value ([3]; Blood, 30 min) was 0.92 ± 0.15 % ID/g, the “% ID-kg/g” value ([3]; Blood, 60 min) was 0.042 ± 0.006 % ID-kg/g and the “% ID/g” value ([3]; Blood, 60 min) was 1.28 ± 0.08 % ID/g. For the same compound, the “% ID-kg/g” value ([3]; Cerebellum, 2 min) was 0.210 ± 0.017 % ID-kg/g, the “% ID/g” value ([3]; Cerebellum, 2 min) was 6.24 ± 0.35 % ID/g and the “% ID-kg/g” value ([3]; Cerebellum, 30 min) was 0.048 ± 0.011 % ID-kg/g. For the same compound, the “% ID/g” value ([3]; Cerebellum, 30 min) was 1.38 ± 0.23 % ID/g, the “% ID-kg/g” value ([3]; Cerebellum, 60 min) was 0.032 ± 0.003 % ID-kg/g and the “% ID/g” value ([3]; Cerebellum, 60 min) was 0.98 ± 0.12 % ID/g. For the same compound, the “% ID-kg/g” value ([3]; Cortex, 2 min) was 0.222 ± 0.015 % ID-kg/g, the “% ID/g” value ([3]; Cortex, 2 min) was 6.62±0.33 % ID/g and the “% ID-kg/g” value ([3]; Cortex, 30 min) was 0.042 ± 0.010 % ID-kg/g. The “% ID/g” value ([3]; Cortex, 30 min) was 1.20 ± 0.20 % ID/g, the “% ID-kg/g” value ([3]; Cortex, 60 min) was 0.024 ± 0.002 % ID-kg/g and the “% ID/g” value ([3]; Cortex, 60 min) was 0.73±0.09 % ID/g and 0.73 ± 0.10 % ID/g. For the same compound, the “% ID-kg/g” value ([3]; Remnant (brain), 2 min) was 0.212 ± 0.017 % ID-kg/g, the “% ID/g” value ([3]; Remnant (brain), 2 min) was 6.30 ± 0.46 % ID/g and the “% ID-kg/g” value ([3]; Remnant (brain), 30 min) was 0.066 ± 0.014 % ID-kg/g. The “% ID/g” value ([3]; Remnant (brain), 30 min) was 1.91 ± 0.30 % ID/g, the “% ID-kg/g” value ([3]; Remnant (brain), 60 min) was 0.044 ± 0.003 % ID-kg/g and the “% ID/g” value ([3]; Remnant (brain), 60 min) was 1.32 ± 0.15 % ID/g. For the same compound, the “release from normal mouse brain (in words)” value ([3]; normal mouse brain) was “very quickly released”, the logP [4] was 3.11 and the “brain region to cerebellar ratio, Cinerea” value ([5]; 15 min) was 0.45. The “brain region to cerebellar ratio, Frontal cortex” value ([5]; 15 min) was 0.92, the “brain region to cerebellar ratio, Occipital cortex” value ([5]; 15 min) was 1.05 and the “brain region to cerebellar ratio, posterior cingulate cortex” value ([5]; 15 min) was 0.89. The “brain region to cerebellar ratio, Cerebell” value ([5]; 15 min) was 1.00, the “brain region to cerebellar ratio, Cinerea” value ([5]; 90 min) was 0.83 and the “brain region to cerebellar ratio, Frontal cortex” value ([5]; 90 min) was 0.96. The “brain region to cerebellar ratio, Occipital cortex” value ([5]; 90 min) was 0.95, the “brain region to cerebellar ratio, posterior cingulate cortex” value ([5]; 90 min) was 0.87 and the “brain region to cerebellar ratio, Cerebell” value ([5]; 90 min) was 1.00.
In the case of `CN(C)c1ccc(-c2nc3ccc([18F])cc3s2)cc1` [Example 3, 2-(4′-N-Dimethylaminophenyl)-6-[^18F]fluorobenzothiazole], the “% ID-kg/g” value ([3]; Blood, 2 min) is reported as 0.040 ± 0.003 % ID-kg/g, the “% ID/g” value ([3]; Blood, 2 min) is reported as 1.55 ± 0.08 % ID/g and the “% ID-kg/g” value ([3]; Blood, 30 min) is reported as 0.026 ± 0.005 % ID-kg/g. For the same compound, the “% ID/g” value ([3]; Blood, 30 min) was 1.04 ± 0.19 % ID/g, the “% ID-kg/g” value ([3]; Blood, 60 min) was 0.021 ± 0.010 % ID-kg/g and the “% ID/g” value ([3]; Blood, 60 min) was 1.02 ± 0.06 % ID/g. For the same compound, the “% ID-kg/g” value ([3]; Cerebellum, 2 min) was 0.115 ± 0.005 % ID-kg/g, the “% ID/g” value ([3]; Cerebellum, 2 min) was 4.45 ± 0.19 % ID/g and the “% ID-kg/g” value ([3]; Cerebellum, 30 min) was 0.050 ± 0.007 % ID-kg/g. For the same compound, the “% ID/g” value ([3]; Cerebellum, 30 min) was 2.03 ± 0.26 % ID/g, the “% ID-kg/g” value ([3]; Cerebellum, 60 min) was 0.024 ± 0.012 % ID-kg/g and the “% ID/g” value ([3]; Cerebellum, 60 min) was 1.16 ± 0.09 % ID/g. The “% ID-kg/g” value ([3]; Cortex, 2 min) was 0.114 ± 0.004 % ID-kg/g, the “% ID/g” value ([3]; Cortex, 2 min) was 4.39 ± 0.22 % ID/g and the “% ID-kg/g” value ([3]; Cortex, 30 min) was 0.054 ± 0.006 % ID-kg/g. For the same compound, the “% ID/g” value ([3]; Cortex, 30 min) was 2.17 ± 0.26 % ID/g, the “% ID-kg/g” value ([3]; Cortex, 60 min) was 0.033 ± 0.017 % ID-kg/g and the “% ID/g” value ([3]; Cortex, 60 min) was 1.61 ± 0.22 % ID/g. The “% ID-kg/g” value ([3]; Remnant (brain), 2 min) was 0.110 ± 0.006 % ID-kg/g, the “% ID/g” value ([3]; Remnant (brain), 2 min) was 4.26 ± 0.22 % ID/g and the “% ID-kg/g” value ([3]; Remnant (brain), 30 min) was 0.069 ± 0.010 % ID-kg/g. For the same compound, the “% ID/g” value ([3]; Remnant (brain), 30 min) was 2.80 ± 0.39 % ID/g, the “% ID-kg/g” value ([3]; Remnant (brain), 60 min) was 0.041 ± 0.020 % ID-kg/g and the “% ID/g” value ([3]; Remnant (brain), 60 min) was 2.01 ± 0.15 % ID/g. For the same compound, the “initial cerebral uptake (in words)” value ([3]; normal mouse brain, 2 min) was “relatively lower initial cerebral uptake”, the “release from normal mouse brain (in words)” value ([3]; normal mouse brain) was “slower 60-minute removal rate” and the logP [4] was 4.33. For the same compound, the “brain region to cerebellar ratio, Cinerea” value ([5]; 15 min) was 0.40, the “brain region to cerebellar ratio, Frontal cortex” value ([5]; 15 min) was 0.88 and the “brain region to cerebellar ratio, Occipital cortex” value ([5]; 15 min) was 1.17. For the same compound, the “brain region to cerebellar ratio, posterior cingulate cortex” value ([5]; 15 min) was 0.91, the “brain region to cerebellar ratio, Cerebell” value ([5]; 15 min) was 1.00 and the “brain region to cerebellar ratio, Cinerea” value ([5]; 90 min) was 0.83. For the same compound, the “brain region to cerebellar ratio, Frontal cortex” value ([5]; 90 min) was 1.02, the “brain region to cerebellar ratio, Occipital cortex” value ([5]; 90 min) was 1.12 and the “brain region to cerebellar ratio, posterior cingulate cortex” value ([5]; 90 min) was 1.00. For the same compound, the “brain region to cerebellar ratio, Cerebell” value ([5]; 90 min) was 1.00.
Work on `CNc1ccc(-c2nc3ccc(F)cc3s2)cc1` [Example 5, 2-(4′-N-methylaminophenyl)-6-fluorobenzothiazole] yielded a melting point of 153.5 to 154.5 °C, a Ki [6] of 7.55 nM and a Ki [7] of 13.3 nM.
`CN(C)c1ccc(-c2nc3ccc(F)cc3s2)cc1` [Example 6, 2-(4′-Dimethylaminophenyl)-6-fluorobenzothiazole] gave a melting point of 204.4 to 205.9 °C, a Ki [6] of 1.86 nM and a Ki [7] of 7.9 nM.
